The text below walks through data of patent publication US6472415B1, “Androgen receptor suppressors in the therapy and diagnosis of prostate cancer, alopecia and other hyper-androgenic syndromes” (priority 1998, dated 2002).

The conditions of series [1]: rabbits, 2× daily 0.5 mL of 10% solution in 50/50 PEG 400/EtOH, shaved skin 20 cm^2; HPLC sensitivity 5 nanograms.
For series [2] the following is noted: human, serum. Here is the method:
Compounds were tested for stability in human serum at 38° C. They were dissolved in isopropanol/H2O (95:5), mixed with human serum to a concentration of 0.5 mg/mL, and incubated at 38° C. Serum aliquots were extracted with ethyl acetate and analyzed by HPLC.
(Permadi, H.; Lundgren, B.; Andersson, K.; Sundberg, C.; DePierre, J. W. Effects of perfluoro fatty acids on peroxisome proliferation and mitochondrial size in mouse liver: dose and time factors and effect of chain length. Xenobiotica, 91993) Vol. 23, No. 7, pp.761-70).

Series [3] concerns prostate and seminal vesicles. Briefly: Weight of prostate and seminal vesicles (secondary sex organs) in rats. In kind it is in vivo.
Experimental: (The dose of 0.1 mg/kg approximates the expected topical daily dose for humans).
For series [4], the system named is androgenic alopecia. Particulars: three male volunteers, 1% solution in ethanol.
Series [5] in a line: Systemic toxicity, repeated i.p. injection in mice. The settings on record: i.p. every 2nd day. The class given is in vivo. Here is the method:
Systemic toxicity was orientationally evaluated by i.p. injection every 2nd day in mice. […] For BP-34, the corresponding values were 150 mg/kg bw and 300 mg/kg bw.
The maximum tolerated dose should thus be approximately 300 mg/kg. For BP-34, i.p. injections of 100-300 mg/kg produce no mortalities in mice. […] Therefore, the maximum tolerated dose of BP-34 should be approximately 250 mg/kg.

For series [6] the following is noted: i.m., 75 mg/kg bw.
The conditions of series [7]: Takagi et al. 1991; cited from earlier work.
Setting [8] is: Rabbit, skin 20 cm^2, 100 mg/d, 10 d.

Each structure is given as a SMILES string. Where two headings read alike, the source gives them in different places.

Turning to `CC(O)(CNC(=O)C(F)(F)C(F)(F)C(F)(F)F)C(=O)Nc1ccc([N+](=O)[O-])c(C(F)(F)F)c1` (centres unmarked) [BP-521, 4-nitro-3-trifluoromethyl-N-(2′-hydroxy-2′-methyl-3′-N-(heptafluorobutyramido)propionyl)aniline], the “Topical absorption” value in series [1] is reported as “No absorption was found”. For the same compound, the “Percent of the intact compound remaining in human serum” value in series [2] (6 h) is on record as 97.5%; in series [2] (24 h) it was 90.0%; in series [2] (48 h), 84.0%; in series [2] (144 h), 60.0%. In series [3] (castrated rats supplemented with testosterone propionate, 0.1 mg/kg), the “Reduction of secondary sex organs' weight” value is on record as “did not reduce”. Besides, the “Reduction of average weight of prostate and seminal vesicles” value in series [3] (intact rats, 10 times subcutaneously 100 mg/kg) is reported as “about 46%”. Also, the “Effect on incipient androgenic alopecia of the forehead line” value in series [4] (0.5 mL twice daily on scalp) is recorded as “effectively arrested incipient androgenic alopecia”. Moreover, the “Hair growth” value in series [4] (0.5 mL twice daily, after 8 weeks) is listed as “induced copious growth of vellum hair”. Besides, the μg/ml blood came out at 1.9 µg/mL (Rabbit ~3 kg, i.p., 150 mg/kg bw, 0.5 hrs); 1.5 µg/mL (Rabbit ~3 kg, oral, 100 mg/kg bw, 0.5 hrs); 0 µg/mL (Rabbit ~3 kg, skin 20 cm^2, 100 mg/d, 10 d, 0.5 hrs); 3.2 µg/mL (Rabbit, i.p., 150 mg/kg bw, 1.0 hrs); 1.9 µg/mL (Rabbit, i.p., 150 mg/kg bw, 1.5 hrs); 1.5 µg/mL (Rabbit, i.p., 150 mg/kg bw, 2.5 hrs). The compound also gave a μg/ml blood (Rabbit, i.p., 150 mg/kg bw, 7.0 hrs) of 3.0 µg/mL; a μg/ml blood (Rabbit, i.p., 150 mg/kg bw, 24 hrs) of 2.2 µg/mL; a μg/ml blood (Rabbit, oral, 100 mg/kg bw, 1.0 hrs) of 1.7 µg/mL; a μg/ml blood (Rabbit, oral, 100 mg/kg bw, 1.5 hrs) of 2.6 µg/mL; a μg/ml blood (Rabbit, oral, 100 mg/kg bw, 2.5 hrs) of 1.5 µg/mL; a μg/ml blood (Rabbit, oral, 100 mg/kg bw, 7.0 hrs) of 1.0 µg/mL. In addition, the μg/ml blood came to 1.0 µg/mL (Rabbit, oral, 100 mg/kg bw, 24 hrs); 0 µg/mL (Rabbit, skin 20 cm^2, 100 mg/d, 10 d, 1.0 hrs); 0 µg/mL (Rabbit, skin 20 cm^2, 100 mg/d, 10 d, 1.5 hrs); 0 µg/mL (Rabbit, skin 20 cm^2, 100 mg/d, 10 d, 2.5 hrs); 0 µg/mL (Rabbit, skin 20 cm^2, 100 mg/d, 10 d, 7.0 hrs); 0 µg/mL (Rabbit, skin 20 cm^2, 100 mg/d, 10 d, 24 hrs). Further, the μg/ml blood amounted to 0.7 µg/mL in series [6] (Rat ~140 g, 0.5 hrs); 4.7 µg/mL in series [6] (Rat, 1.0 hrs); 2.2 µg/mL in series [6] (Rat, 1.5 hrs); 1.0 µg/mL in series [6] (Rat, 24 hrs). The Cumulative % dose (Rabbit, i.p., 150 mg/kg bw) was 2.8%; the Cumulative % dose (Rabbit, oral, 100 mg/kg bw) was 1.50%; the Cumulative % dose under setting [8] was 0%; the Cumulative % dose in series [6] (Rat) came out at 2.9%. For the same compound, the “Cumulative mg/total blood volume” value (Rabbit, i.p., 150 mg/kg bw) amounted to 11.6 µg; the “Cumulative mg/total blood volume” value (Rabbit, oral, 100 mg/kg bw) was 3.0 µg; the “Cumulative mg/total blood volume” value under setting [8] turned out to be 0 µg; the “Cumulative mg/total blood volume” value in series [6] (Rat) stood at 2.1 µg. The “Bioavailability” value (from the subcutaneous, muscle and intraperitoneal spaces) is reported as “low”. Besides, where the note is “oral test”, the “Peak serum levels as % of the injected dose” value is reported as 0.0052%. Moreover, in series [5], the “Dose with morbidity but no mortality” value stood at 350 mg/kg bw. Further, the “Dose given without mortality or morbidity” value in series [5] (5 times) is given as 200 mg/kg bw.
Regarding `O=C(O)C(F)(F)C(F)(F)C(F)(F)F` [perfluorobutyric acid], the “Toxicity” value in series [7] is reported as “low toxicity”.
